Results as given in article PMC11316031 (EMBO Reports, 2024).

Experiments:
[1] = molecular target: T1, Arp2 (subunit of the Arp2/3 complex) (Homo sapiens, UniProt P61158+P61160); experiment: TIRF actin branching rate with GST-N-WASP-VCA-activated recombinant Arp2/[…]; also pyrene actin polymerisation; format: biochemical
T1 construct: gene ACTR2; recombinant human Arp2/3 iso-complex containing Arp3/ArpC1A/C5L; with Arp3 (ACTR3, P61158), within the Arp2/3 complex

[2] = molecular target: T2, Arp3 (subunit of the Arp2/3 complex) (Homo sapiens, UniProt P61158); experiment: as above; format: biochemical
T2 construct: gene ACTR3; recombinant human Arp2/3 iso-complex containing Arp3/ArpC1A/C5L; with Arp2/3 complex (Arp2, ArpC1A, ArpC2, ArpC3, ArpC4, ArpC5L)

IC50 [1] | IC50 [2] | Structure (SMILES)
19.9 µM |  | Cc1[nH]c2ccccc2c1CCNC(=O)c1ccccc1F [CK-666]
 | 860 nM | COc1ccc(N2C(=O)CSC2c2cccc(Br)c2)c(OC)c1 (centres unmarked) [CK-869]
